Reference: US20230085307A1, “PYRIDAZINONE COMPOUND AND HERBICIDE” (NISSAN CHEMICAL CORPORATION, priority 2019, published 2023)

Legend:
velvetleaf = experiment: Test Example 5: herbicidal effect by foliage application, plastic box (Table 20, symbol M); type: in vivo, velvetleaf (Abutilon theophrasti); details: foliage application, 3 weeks after application
In short: (§1)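 Sow seeds spot-wise in sterilized diluvial soil; cover with ~1.5 cm soil. Grow 14 days in greenhouse, 25° C. to 30° C. Spray foliage with emulsion diluted to predetermined amount. Rate effect after 3 weeks.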

oval-leafed pondweed = experiment: Test Example 2: herbicidal activity, application during weed generation under submerged conditions (Table 17, symbol C); type: in vivo, oval-leafed pondweed (Monochoria vaginalis); details: application during weed generation, submerged conditions
In short: (§2)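 Herbicide emulsion, diluted with water to the chosen amount, is applied onto 4 cm floodwater over alluvial soil where the weeds were co-sown and raised at 25–30° C. Application timing: 1–2 leaves. Assessment: three weeks afterwards.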

Italian ryegrass [1] = experiment: Test Example 4: herbicidal effect by soil treatment (Table 19, symbol K); type: in vivo, Italian ryegrass (Lolium multiflorum)
In short: (§3)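 Applied as a water-diluted emulsion, the compound was sprayed onto soil covering newly sown seeds. Evaluation came three weeks after application, in a greenhouse held at 25° C. to 30° C.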

Chinese sprangletop = experiment: Test Example 3: herbicidal effect by foliage application, Wagner pot (Table 18, symbol D); type: in vivo, chinese sprangletop (Leptochloa chinensis)
In short: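 Plants were sown in alluvial soil held under 0.1–0.5 cm standing water and grown 14 days in a greenhouse at 25–30 °C. An emulsifiable formulation, water-diluted to the set dose, was then sprayed onto the foliage, and effects were scored three weeks later using previously defined criteria.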

green foxtail = experiment: Test Example 5: herbicidal effect by foliage application, plastic box (Table 20, symbol G); type: in vivo, green foxtail (Setaria viridis); details: foliage application, 3 weeks after application
In short: as §1

late watergrass = experiment: Test Example 2: herbicidal activity, application during weed generation under submerged conditions (Table 17, symbol A); type: in vivo, late watergrass (Echinochloa oryzicola); details: application during weed generation, submerged conditions
In short: as §2

lambsquarters [2] = experiment: Test Example 4: herbicidal effect by soil treatment (Table 19, symbol O); type: in vivo, lambsquarters (Chenopodium album)
In short: as §3

lambsquarters [3] = experiment: Test Example 5: herbicidal effect by foliage application, plastic box (Table 20, symbol O); type: in vivo, lambsquarters (Chenopodium album); details: foliage application, 3 weeks after application
In short: as §1

blackgrass = experiment: Test Example 4: herbicidal effect by soil treatment (Table 19, symbol J); type: in vivo, blackgrass (Alopecurus myosuroides)
In short: as §3

Japanese bulrush = experiment: Test Example 1: herbicidal activity, application before weed generation under submerged conditions (Table 16, symbol B); type: in vivo, Japanese bulrush (Schoenoplectus juncoides)
In short: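 Emulsion formulation, water-diluted to set dose, was put onto the flooded surface (4 cm depth, alluvial soil) the same day weeds were sown and 2.5-leaf rice transplanted. After 3 weeks at 25-30 °C under glass, each species was rated 0 (≤5% kill) to 5 (≥90% kill).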

southern crabgrass = experiment: Test Example 4: herbicidal effect by soil treatment (Table 19, symbol F); type: in vivo, southern crabgrass (Digitaria ciliaris)
In short: as §3

Italian ryegrass [4] = experiment: Test Example 5: herbicidal effect by foliage application, plastic box (Table 20, symbol K); type: in vivo, Italian ryegrass (Lolium multiflorum); details: foliage application, 3 weeks after application
In short: as §1

wild oat = experiment: Test Example 4: herbicidal effect by soil treatment (Table 19, symbol I); type: in vivo, wild oat (Avena fatua)
In short: as §3

windgrass = experiment: Test Example 4: herbicidal effect by soil treatment (Table 19, symbol L); type: in vivo, windgrass (Apera spica-venti)
In short: as §3

SMILES	effect on velvetleaf (M) (velvetleaf; 320 g/ha)	herbicidal effect rating, C: oval-leafed pondweed (oval-leafed pondweed; AAH 320 g/ha)	herbicidal effect rating, K: Italian ryegrass (Italian ryegrass [1]; 320 g/ha)	herbicidal effect on D (Chinese sprangletop), rating 0-5 (Chinese sprangletop; 320 g/ha)	effect on green foxtail (G) (green foxtail; 320 g/ha)	herbicidal effect rating, A: late watergrass (late watergrass; AAH 320 g/ha)	herbicidal effect rating, O: lambsquarters (lambsquarters [2]; 320 g/ha)	effect on lambsquarters (O) (lambsquarters [3]; 320 g/ha)	herbicidal effect rating, J: blackgrass (blackgrass; 320 g/ha)	Herbicidal effect on B: Japanese bulrush (grade 0-5) (Japanese bulrush; 320 g/ha applied herbicide)	herbicidal effect rating, F: southern crabgrass (southern crabgrass; 320 g/ha)	effect on Italian ryegrass (K) (Italian ryegrass [4]; 320 g/ha)	herbicidal effect rating, I: wild oat (wild oat; 320 g/ha)	herbicidal effect rating, L: windgrass (windgrass; 320 g/ha)	further results
COc1ccc(-c2sc3ccc(F)cc3c2-c2c(O)c(C)nn(C)c2=O)cc1 [2-026]	5 (Herbicidal rate of 90% or more (almost completely withered))	5 (Herbicidal rate of 90% or more (almost completely withered))	3 (Herbicidal rate of 40% or more and less than 70%)	4 (Herbicidal rate of 70% or more and less than 90%)	4 (Herbicidal rate of 70% or more and less than 90%)	1 (Herbicidal rate of 5% or more and less than 20%)	5 (Herbicidal rate of 90% or more (almost completely withered))	4 (Herbicidal rate of 70% or more and less than 90%)	3 (Herbicidal rate of 40% or more and less than 70%)	4 (Herbicidal rate of 70% or more and less than 90%)	4 (Herbicidal rate of 70% or more and less than 90%)	4 (Herbicidal rate of 70% or more and less than 90%)	3 (Herbicidal rate of 40% or more and less than 70%)	1 (Herbicidal rate of 5% or more and less than 20%)	–
CCCC(=O)Oc1c(C)nn(C)c(=O)c1-c1c(-c2ccccc2OCC)sc2ccc(F)cc12 [2-029]	–	–	–	–	–	–	–	–	–	–	–	–	–	–	effect on velvetleaf (M) (velvetleaf; 266 g/ha): 5 (Herbicidal rate of 90% or more (almost completely withered)); herbicidal effect rating, C: oval-leafed pondweed (oval-leafed pondweed; AAH 266 g/ha): 3 (Herbicidal rate of 40% or more and less than 70%); herbicidal effect rating, K: Italian ryegrass (Italian ryegrass [1]; 266 g/ha): 0 (Herbicidal rate of 5% or less (almost no effect)); herbicidal effect on D (Chinese sprangletop), rating 0-5 (Chinese sprangletop; 266 g/ha): 3 (Herbicidal rate of 40% or more and less than 70%); effect on green foxtail (G) (green foxtail; 266 g/ha): 4 (Herbicidal rate of 70% or more and less than 90%); herbicidal effect rating, A: late watergrass (late watergrass; AAH 266 g/ha): 3 (Herbicidal rate of 40% or more and less than 70%); herbicidal effect rating, O: lambsquarters (lambsquarters [2]; 266 g/ha): 4 (Herbicidal rate of 70% or more and less than 90%); effect on lambsquarters (O) (lambsquarters [3]; 266 g/ha): 3 (Herbicidal rate of 40% or more and less than 70%); herbicidal effect rating, J: blackgrass (blackgrass; 266 g/ha): 0 (Herbicidal rate of 5% or less (almost no effect)); Herbicidal effect on B: Japanese bulrush (grade 0-5) (Japanese bulrush; 266 g/ha applied herbicide): 0 (Herbicidal rate of 5% or less (almost no effect)); herbicidal effect rating, F: southern crabgrass (southern crabgrass; 266 g/ha): 3 (Herbicidal rate of 40% or more and less than 70%); effect on Italian ryegrass (K) (Italian ryegrass [4]; 266 g/ha): 2 (Herbicidal rate of 20% or more and less than 40%); herbicidal effect rating, I: wild oat (wild oat; 266 g/ha): 3 (Herbicidal rate of 40% or more and less than 70%); herbicidal effect rating, L: windgrass (windgrass; 266 g/ha): 0 (Herbicidal rate of 5% or less (almost no effect))
CCCOc1ccc(-c2sc3ccc(F)cc3c2-c2c(O)c(C)nn(C)c2=O)cc1 [2-032]	5 (Herbicidal rate of 90% or more (almost completely withered))	5 (Herbicidal rate of 90% or more (almost completely withered))	0 (Herbicidal rate of 5% or less (almost no effect))	3 (Herbicidal rate of 40% or more and less than 70%)	5 (Herbicidal rate of 90% or more (almost completely withered))	1 (Herbicidal rate of 5% or more and less than 20%)	5 (Herbicidal rate of 90% or more (almost completely withered))	5 (Herbicidal rate of 90% or more (almost completely withered))	0 (Herbicidal rate of 5% or less (almost no effect))	4 (Herbicidal rate of 70% or more and less than 90%)	2 (Herbicidal rate of 20% or more and less than 40%)	4 (Herbicidal rate of 70% or more and less than 90%)	0 (Herbicidal rate of 5% or less (almost no effect))	0 (Herbicidal rate of 5% or less (almost no effect))	–
Cc1nn(C)c(=O)c(-c2c(-c3ccc(OC(C)C)cc3)sc3ccc(F)cc23)c1O [2-034]	5 (Herbicidal rate of 90% or more (almost completely withered))	3 (Herbicidal rate of 40% or more and less than 70%)	1 (Herbicidal rate of 5% or more and less than 20%)	0 (Herbicidal rate of 5% or less (almost no effect))	5 (Herbicidal rate of 90% or more (almost completely withered))	1 (Herbicidal rate of 5% or more and less than 20%)	5 (Herbicidal rate of 90% or more (almost completely withered))	5 (Herbicidal rate of 90% or more (almost completely withered))	1 (Herbicidal rate of 5% or more and less than 20%)	4 (Herbicidal rate of 70% or more and less than 90%)	5 (Herbicidal rate of 90% or more (almost completely withered))	5 (Herbicidal rate of 90% or more (almost completely withered))	0 (Herbicidal rate of 5% or less (almost no effect))	0 (Herbicidal rate of 5% or less (almost no effect))	–
CCCCOc1ccc(-c2sc3ccc(F)cc3c2-c2c(O)c(C)nn(C)c2=O)cc1 [2-036]	5 (Herbicidal rate of 90% or more (almost completely withered))	3 (Herbicidal rate of 40% or more and less than 70%)	0 (Herbicidal rate of 5% or less (almost no effect))	3 (Herbicidal rate of 40% or more and less than 70%)	5 (Herbicidal rate of 90% or more (almost completely withered))	0 (Herbicidal rate of 5% or less (almost no effect))	5 (Herbicidal rate of 90% or more (almost completely withered))	5 (Herbicidal rate of 90% or more (almost completely withered))	0 (Herbicidal rate of 5% or less (almost no effect))	4 (Herbicidal rate of 70% or more and less than 90%)	2 (Herbicidal rate of 20% or more and less than 40%)	3 (Herbicidal rate of 40% or more and less than 70%)	0 (Herbicidal rate of 5% or less (almost no effect))	0 (Herbicidal rate of 5% or less (almost no effect))	–
CCCC(=O)Oc1c(C)nn(C)c(=O)c1-c1c(-c2ccc(OC(F)(F)F)cc2)sc2ccc(F)cc12 [2-046]	5 (Herbicidal rate of 90% or more (almost completely withered))	0 (Herbicidal rate of 5% or less (almost no effect))	3 (Herbicidal rate of 40% or more and less than 70%)	3 (Herbicidal rate of 40% or more and less than 70%)	5 (Herbicidal rate of 90% or more (almost completely withered))	1 (Herbicidal rate of 5% or more and less than 20%)	5 (Herbicidal rate of 90% or more (almost completely withered))	5 (Herbicidal rate of 90% or more (almost completely withered))	0 (Herbicidal rate of 5% or less (almost no effect))	4 (Herbicidal rate of 70% or more and less than 90%)	2 (Herbicidal rate of 20% or more and less than 40%)	4 (Herbicidal rate of 70% or more and less than 90%)	0 (Herbicidal rate of 5% or less (almost no effect))	0 (Herbicidal rate of 5% or less (almost no effect))	–
